# ChEMBL document CHEMBL3046751, “Effects of Pyridalyl on ATP Concentrations in Cultured Sf9 Cells” (J Pestic Sci, 2005)
# Activity calls are given as the source filed them. The rule behind the calls is not given here.
# Experiments:
# Format in all cases: functional, cell-based
# [1] = system: Sf9; experiment: Reduction of ATP level in Spodoptera frugiperda (fall armyworm) Sf9 cells at 0.1 to 1 uM after 6 to 24 hr by luminescent cell viability assay
# [2] = system: Sf9; experiment: Increase of ATP level in Spodoptera frugiperda (fall armyworm) Sf9 cells at 10 uM after 6 to 24 hr by luminescent cell viability assay
# [3] = system: Sf9; experiment: Reduction of ATP level in Spodoptera frugiperda (fall armyworm) Sf9 cells at 0.01 to 10 uM after 4 hr by luminescent cell viability assay
# [4] = system: Sf9; experiment: Reduction of ATP level in Spodoptera frugiperda (fall armyworm) Sf9 cells at 0.01 uM after 24 hr by luminescent cell viability assay
# [5] = system: Sf9; experiment: Reduction of ATP level in Spodoptera frugiperda (fall armyworm) Sf9 cells after 20 to 24 hr by luminescent cell viability assay
# [6] = system: Sf9; experiment: Reduction of ATP level in Spodoptera frugiperda (fall armyworm) Sf9 cells at 1 to 10 uM after 20 to 24 hr by luminescent cell viability assay
# [7] = system: Sf9; experiment: Reduction of ATP level in Spodoptera frugiperda (fall armyworm) Sf9 cells at 10 uM after 2 hr by luminescent cell viability assay
# [8] = system: Sf9; experiment: Reduction of ATP level in Spodoptera frugiperda (fall armyworm) Sf9 cells at 1 uM after 8 hr by luminescent cell viability assay
# [9] = system: Sf9; experiment: Cytotoxicity against Spodoptera frugiperda (fall armyworm) Sf9 cells at 0.01 uM
# [10] = system: Sf9; experiment: Reduction of ATP level in Spodoptera frugiperda (fall armyworm) Sf9 cells at 0.1 uM after 24 hr by luminescent cell viability assay
# [11] = system: Sf9; experiment: Reduction of ATP level in Spodoptera frugiperda (fall armyworm) Sf9 cells at 0.1 to 10 uM after 4 hr by luminescent cell viability assay
# [12] = system: Sf9; experiment: Reduction of ATP level in Spodoptera frugiperda (fall armyworm) Sf9 cells at 10 uM after 4 hr by luminescent cell viability assay
# [13] = system: Sf9; experiment: Reduction of ATP level in Spodoptera frugiperda (fall armyworm) Sf9 cells at 1 to 10 uM after 4 hr by luminescent cell viability assay
# [14] = system: Sf9; experiment: Reduction of ATP level in Spodoptera frugiperda (fall armyworm) Sf9 cells at 10 uM after 6 to 24 hr by luminescent cell viability assay
compound,measurement,setting,value
COc1ccc(C[C@H]2NC[C@H](O)[C@H]2OC(C)=O)cc1,Activity,[1],inactive
same,Activity,[2],Active
Cc1nn(C)c(Oc2ccccc2)c1/C=N/OCc1ccc(C(=O)OC(C)(C)C)cc1,Activity,[3],inactive
FC(F)(F)c1ccc(OCCCOc2c(Cl)cc(OCC=C(Cl)Cl)cc2Cl)nc1,Activity,[4],inactive
same,Activity,[5],Dose-dependent effect
same,Activity,[6],Active
same,Activity,[7],Active
same,Activity,[8],Active
same,Activity,[9],inactive
same,Activity,[10],Active
C=C(C)[C@H]1Cc2c(ccc3c2O[C@@H]2COc4cc(OC)c(OC)cc4[C@@H]2C3=O)O1,Activity,[11],inactive
CCCCCCCCCCCCC1=C(OC(C)=O)C(=O)c2ccccc2C1=O,Activity,[5],Dose-dependent effect
same,Activity,[12],Active
N#CC(C#N)=NNc1ccccc1Cl,Activity,[5],Dose-dependent effect
same,Activity,[11],Active
CCOCn1c(-c2ccc(Cl)cc2)c(C#N)c(Br)c1C(F)(F)F,Activity,[5],Dose-dependent effect
same,Activity,[13],Active
O=c1[nH]cc(F)c(=O)[nH]1,Activity,[14],inactive
